Results taken from publication PMC9487755 (Epigenetics, 2021).
Read-outs that look alike come from different tables or passages of the source.

Assays:
CamA [1] = molecular target: T1, CamA (Clostridioides difficile, UniProt Q183J3); conditions: cited from earlier work
T1 sequence (Q183J3 1-577): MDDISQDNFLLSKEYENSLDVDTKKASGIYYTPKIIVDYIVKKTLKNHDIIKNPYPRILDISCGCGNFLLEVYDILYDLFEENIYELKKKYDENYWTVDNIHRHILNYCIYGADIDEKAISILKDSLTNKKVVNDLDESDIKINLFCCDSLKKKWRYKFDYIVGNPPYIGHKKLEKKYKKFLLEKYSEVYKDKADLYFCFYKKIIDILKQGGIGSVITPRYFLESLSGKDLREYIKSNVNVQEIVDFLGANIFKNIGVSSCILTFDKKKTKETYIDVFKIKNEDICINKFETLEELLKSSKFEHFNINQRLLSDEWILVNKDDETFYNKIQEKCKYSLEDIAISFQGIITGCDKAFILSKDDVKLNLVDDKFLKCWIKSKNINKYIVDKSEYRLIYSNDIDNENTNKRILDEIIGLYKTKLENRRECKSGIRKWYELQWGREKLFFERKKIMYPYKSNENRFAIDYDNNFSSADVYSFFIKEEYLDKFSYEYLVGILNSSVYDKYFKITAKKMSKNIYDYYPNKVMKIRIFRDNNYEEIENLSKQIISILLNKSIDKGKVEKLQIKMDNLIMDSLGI

E. coli Dam = conditions: read-out: Km of SAM for E. coli Dam; cited from earlier work
phage T4 Dam = conditions: read-out: Km of SAM for phage T4 Dam; cited from earlier work
M.TaqI = conditions: read-out: KD of SAM for M.TaqI; cited from earlier work
C. difficile CamA = molecular target: T2, C. difficile CamA (Clostridioides difficile, UniProt Q183J3); assay: CamA methylation inhibition assay; format: biochemical; conditions: for Relative inhibition of CamA activity at a single inhibitor concentration: 50 μM inhibitor
T2 sequence (Q183J3 1-577): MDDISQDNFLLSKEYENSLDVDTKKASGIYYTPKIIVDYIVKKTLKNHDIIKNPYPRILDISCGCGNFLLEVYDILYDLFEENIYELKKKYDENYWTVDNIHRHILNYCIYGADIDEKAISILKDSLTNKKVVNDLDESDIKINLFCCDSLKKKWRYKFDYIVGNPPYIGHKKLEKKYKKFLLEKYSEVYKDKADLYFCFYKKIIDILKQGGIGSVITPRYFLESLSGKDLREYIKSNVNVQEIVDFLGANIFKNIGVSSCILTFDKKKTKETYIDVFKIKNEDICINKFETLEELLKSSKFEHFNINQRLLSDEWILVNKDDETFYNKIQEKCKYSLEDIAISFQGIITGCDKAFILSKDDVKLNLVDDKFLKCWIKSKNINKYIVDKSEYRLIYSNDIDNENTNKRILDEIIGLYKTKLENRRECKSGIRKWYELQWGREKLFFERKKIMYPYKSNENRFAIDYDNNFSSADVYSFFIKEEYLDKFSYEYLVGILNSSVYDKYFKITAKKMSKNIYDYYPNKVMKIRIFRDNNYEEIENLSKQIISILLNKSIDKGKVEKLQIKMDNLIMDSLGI

CamA [2] = molecular target: T1, CamA; assay: ITC binding of inhibitors to CamA
[3] = test system: four human RNA adenine MTases and two bacterial DNA adenine MTases; assay: Selectivity: in vitro inhibition of other class I MTases; format: biochemical; conditions: four human RNA adenine MTases and two bacterial DNA adenine MTases (Figure 5)
PRMT7 = conditions: read-out: IC50 PRMT7 activity; cited from earlier work
[4] = molecular target: T3, CamA (DNA adenine methyltransferase, plasmid pXC2184) (Clostridioides difficile, UniProt Q183J3 1-577); assay: X-ray crystallography
T3 sequence: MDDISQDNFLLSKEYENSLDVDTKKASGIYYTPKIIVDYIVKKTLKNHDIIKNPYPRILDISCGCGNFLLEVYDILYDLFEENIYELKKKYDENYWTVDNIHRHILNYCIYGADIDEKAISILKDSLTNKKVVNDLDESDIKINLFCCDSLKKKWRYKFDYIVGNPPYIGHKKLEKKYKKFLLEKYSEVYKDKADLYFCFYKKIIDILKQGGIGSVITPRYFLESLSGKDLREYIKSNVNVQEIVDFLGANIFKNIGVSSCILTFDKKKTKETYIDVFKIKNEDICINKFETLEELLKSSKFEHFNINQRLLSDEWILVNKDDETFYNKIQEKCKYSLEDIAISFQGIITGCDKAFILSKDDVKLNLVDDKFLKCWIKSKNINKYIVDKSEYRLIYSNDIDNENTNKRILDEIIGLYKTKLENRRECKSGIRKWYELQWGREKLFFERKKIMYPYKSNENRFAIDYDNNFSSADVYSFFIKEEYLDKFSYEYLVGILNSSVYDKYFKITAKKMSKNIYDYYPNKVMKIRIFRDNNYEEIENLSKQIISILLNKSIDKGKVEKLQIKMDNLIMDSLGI

For C[S+](CC[C@H](N)C(=O)[O-])C[C@H]1O[C@@H](n2cnc3c(N)ncnc32)[C@H](O)[C@@H]1O (stereo partly drawn) [SAM, S-adenosyl-L-methionine], the Kd (CamA [1]; read-out: KD of SAM binding by CamA) is listed as 35 µM, the Km (CamA [1]; read-out: Km of SAM for CamA) is listed as over 17 µM and the Km (E. coli Dam) is listed as 3 to 6 µM. For the same molecule, the Km (phage T4 Dam) was 0.5 µM and the Kd (M.TaqI) was 2 µM.

In the case of CC(C)N(CCCNC(=O)Nc1ccc(C(C)(C)C)cc1)C[C@H]1O[C@@H](n2cc(Br)c3c(N)ncnc32)[C@H](O)[C@@H]1O [SGC0946], the IC50 (C. difficile CamA) is reported as 4.7 µM, the “Relative inhibition of CamA activity at a single inhibitor concentration” value (“Relative inhibition of CamA activity” below) (C. difficile CamA) is reported as “notable inhibition” and the “Fold more potent inhibition of CamA (IC50) than EPZ004777” value (C. difficile CamA; SGC0946 vs. EPZ004777) is reported as ~ 9 X. The Kd (CamA [2]) was 6.3 µM, the “Fold stronger binding to CamA (KD) than EPZ004777” value (CamA [2]; SGC0946 vs. EPZ004777) was ~ 3 X and the “in vitro inhibition against six distinct MTase enzymes” value [3] was ~ 50%.

With CC(C)N(C[C@H]1O[C@@H](n2cnc3c(N)ncnc32)[C@H](O)[C@@H]1O)[C@H]1C[C@@H](CCc2nc3cc(C(C)(C)C)ccc3[nH]2)C1 [EPZ5676, pinometostat] the IC50 (C. difficile CamA) was over 250 µM, the “Relative inhibition of CamA activity” value (C. difficile CamA) was “failed to inhibit CamA” and the Kd (CamA [2]) was over 50 µM.

With CC(C)N(CCCNC(=O)Nc1ccc(C(C)(C)C)cc1)C[C@H]1O[C@@H](n2ccc3c(N)ncnc32)[C@H](O)[C@@H]1O [EPZ004777] the “Relative inhibition of CamA activity” value (C. difficile CamA) was “notable inhibition”.

With CC1=C(C)C(=O)C(C(C)(C)CC(=O)N(CCCCSC[C@H]2O[C@@H](n3cnc4c(N)ncnc43)[C@H](O)[C@@H]2O)Cc2cccc(-c3ccc(Cl)cc3)c2)=C(C)C1=O [SGC3027] the “Relative inhibition of CamA activity” value (C. difficile CamA) was “does not possess in vitro inhibitory activity”.

In the case of Nc1ncnc2c1ccn2[C@@H]1O[C@H]([C@H](O)c2ccccc2)[C@@H](O)[C@H]1O [LLY-283], the “Relative inhibition of CamA activity” value (C. difficile CamA) is reported as “much weaker inhibition than sinefungin”.

In the case of NCCCSC[C@H]1O[C@@H](n2cnc3c(N)ncnc32)[C@H](O)[C@@H]1O [SGC0911], the IC50 (PRMT7) is listed as 1 µM.

B1: 14-bp CamA co-crystallization duplex (dsDNA)
DNA 1: TTCAAAAAGTCCCA
DNA 2: ATGGGACTTTTTGA
B1: binds [4].
